For one data set, the system named is Caco-2 cells. In words: Caco-2 permeability determination. It counts as in vitro ADME. As to the method: (§1) Caco-2 permeability determination. Caco-2 permeability determination was carried out […]
(§2) Caco-2 cells were obtained from the ATCC (Cat#HTB-37) and maintained in Dulbecco’s modified Eagle’s Medium containing 10% fetal bovine serum, 1% glutamine, 1% nonessential amino acids, 100 μg/mL streptomycin, and 100 U/mL penicillin.
(§3) CO2 and 90% relative humidity environment. Caco-2 cells were passaged every 7 days at a ratio of 1:10. Cells were used between passages 30 and 40. After 21 days of culture, the integrity of the cell monolayer was verified by measuring the transepithelial electrical […]
(§4) Drug transport from the apical side to the basolateral side (A-B) and from the basolateral side to the apical side was measured simultaneously under the same condition.
(§5) Propranolol and atenolol were used as the […] control, respectively.
(§6) Digoxin was used as the positive control for Pgp-mediated drug efflux. In brief, the method was as follows. After washing the monolayer with HBSS three times, the compounds were diluted and added to the appropriate well (pH 6.8 for apical side and pH […]
(§7) 7.4 for basolateral side). […] Samples were […]
(§8) collected from the donor side at 5 and 95 min, and from the receiver side at 35 and 95 min post-incubation. The concentration of samples was measured by LC-MS/MS. The Papp was calculated from the following equation:
(§9) Papp = (VA/(SA×T))×([drug]acceptor/ [durg]initial donor )
(§10) Where VA is the volume of the acceptor well, SA is the surface area of the membrane, T is the total transport time, [drug]acceptor is the drug level at the acceptor side, and [drug]initial donor is the drug level at the donor side at T = 0. […]
For orientation: Caco-2 monolayers are a common model of the intestinal barrier.

For data set [1], the system named is ICR mice. In words: Oral glucose tolerance test (OGTT) in ICR mice. Format: in vivo, mouse. As to the method: Blood glucose levels were measured berefore and after glucose loading. *p < 0.05, **p < 0.01 vs. control. Error bar indicateds SEM (standard error of the mean). […]
Oral glucose tolerance test (OGTT) and gallbladder filling assay in ICR mice. 100 […]
(§11) mice (n = 7-8) 90 min prior to the oral glucose load (4 g/kg). Blood glucose levels were measured via blood drops obtained by clipping the tail of the mice using an Accu-Chek Advantage II Glucose Monitor (Roche, Indianapolis, IN, USA) before compound dosing and 0, 15, 30, 60, and 120 min after the glucose load. The area under the concentration−time curve from 0 to 120 min (AUC0−120 min, Glu) of blood glucose after the glucose load was calculated by the trapezoidal rule. […]

Data set [2] in a line: Solubility in water determined by LC-MS/MS. Format: physicochemical.
The test system of the next data set is ob/ob mice. In words: Hypoglycemic effect of 3 in diabetic model ob/ob mice. Format: in vivo, mouse.
Data set [3] concerns ICR mice. The arrangement: method as in PMID 25710631. To be noted: normal mice (ICR mice); cited from earlier work.
A further data set has as its target T1, human TGR5 (Homo sapiens, UniProt Q8TDU6).
T1 sequence (Q8TDU6 1-330): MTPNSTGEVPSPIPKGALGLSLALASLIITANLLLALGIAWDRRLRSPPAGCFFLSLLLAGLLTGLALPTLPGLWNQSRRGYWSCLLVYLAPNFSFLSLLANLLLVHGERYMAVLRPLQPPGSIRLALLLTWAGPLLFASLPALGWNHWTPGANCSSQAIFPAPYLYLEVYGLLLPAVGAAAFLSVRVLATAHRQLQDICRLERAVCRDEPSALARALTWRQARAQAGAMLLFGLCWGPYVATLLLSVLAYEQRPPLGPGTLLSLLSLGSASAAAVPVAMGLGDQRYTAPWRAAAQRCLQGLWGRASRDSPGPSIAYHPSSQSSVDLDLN
In words: In vitro TGR5 reporter gene assay (hTGR5/CRE/HEK293). For orientation: In a reporter assay the amount or activity of a reporter protein is the signal.

Data set [4] is described as follows: Caco-2 permeability determination. Format: in vitro ADME. To be noted: human. On the procedure: as §1, §2, §3, §4, §5, §6, §7, §8, §9, §10
Data set [5] is described as follows: In vitro microsomal stability assay (mice). It counts as in vitro ADME. To be noted: mice liver microsomes. As to the method: (§12) Acetonitrile (containing 0.1% formic acid; C (MeOH with 1% TFA). Flow rate: 0.6 […]
(§13) Data system: Masslynx 4.1 (Waters).
(§14) In vitro microsomal stability assay. The test compound was dissolved in DMSO and diluted to the desired concentration with DMSO and 0.1% aqueous BSA. Liver microsomes were incubated in a 96-well plate containing 0.1 M Tris buffer (pH 7.4), 0.33 mg/mL microsomal protein, 0.1 mM test compound, 5.0 mM MgCl2, 0.005% BSA, and 1.0 mM NADPH. Incubations were conducted at 37 °C. An aliquot was removed at each time point and the enzymatic reaction was stopped by protein precipitation in MeOH. The loss of the test compound was determined by LC-MS/MS. The intrinsic clearance (CLint, mL/min/g) was calculated from the following equation: […]
(§15) Where k (min-1) is the slope of the line of the natural log of the percentage parent remaining versus the time of incubation; P is the microsomal protein concentration
A general note: Liver microsomes are a subcellular fraction often used to study metabolism.

The next data set deals with T2, mouse TGR5 (Mus musculus, UniProt Q80SS6).
T2 sequence (Q80SS6 1-329): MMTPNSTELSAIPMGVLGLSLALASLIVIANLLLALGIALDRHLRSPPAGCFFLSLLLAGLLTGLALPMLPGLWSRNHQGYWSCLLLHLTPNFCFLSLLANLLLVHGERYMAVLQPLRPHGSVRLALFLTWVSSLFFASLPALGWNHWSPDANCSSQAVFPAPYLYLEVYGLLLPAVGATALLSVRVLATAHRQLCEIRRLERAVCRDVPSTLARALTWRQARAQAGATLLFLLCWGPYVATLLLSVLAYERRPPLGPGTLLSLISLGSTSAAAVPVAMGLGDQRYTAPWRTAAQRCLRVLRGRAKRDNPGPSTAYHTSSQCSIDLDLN
In words: In vitro TGR5 reporter gene assay (mTGR5/CRE/HEK293).

For data set [6], the system named is ICR mice. In words: Gallbladder filling assay in ICR mice. It counts as in vivo, mouse. Conditions: once a day oral dose 50 mg/kg. As to the method:
Figure 4 (A) Relative gallbladder area and (B) relative bile weight after once a day oral dose. After the OGTT experiment, mice were refed for 3 h, the gallbladder was removed and the area measured using a vernier caliper. The relative gallbladder area was calculated from the length multiplied by the width of the gallbladder. Bile weight was measured using analytical balances. *p < 0.05; **p < 0.01; ***p < 0.001. Error bar indicates SEM.
Caco-2 permeability determination. Caco-2 permeability determination was carried out according to (Eur. J. Med. Chem. 2014, 82, 1-15). […]
Drug transport from the apical side to the basolateral side (A-B) and from the basolateral side to the apical side was measured simultaneously under the same condition. […]
Digoxin was used as the positive control for Pgp-mediated drug efflux. […] The concentration of samples was measured by LC-MS/MS. The Papp was calculated from the following equation: […]
as §11

The nature of data set [7]: In vitro microsomal stability assay (human). Conditions: human liver microsomes. It counts as in vitro ADME. On the procedure:
as §12, §13, §14, §15

Data set [8] in a line: Solubility as noted in the SAR discussion. Format: physicochemical. To be noted: compounds containing Br.
[9] abbreviates: Caco-2, apical to basolateral side.
[10] abbreviates: Caco-2, basolateral to apical side.

Values after ≈ are worked out from the molar mass of the structure shown.

A word on the solubility: it is how much of the substance goes into solution per volume. Read a high solubility as a readily soluble substance. In general, EC50 refers to the concentration giving half of the maximal effect. A high value points to a need for much substance. The term efflux ratio denotes a quotient of directional permeabilities that is used to spot active efflux. The Papp A→B is how fast a substance crosses the layer from the apical side. As a reminder, the Papp B→A is how fast a substance crosses the layer from the basolateral side. As usually defined, the melting point is the temperature, or range, at which the solid turns liquid.

As for `O=C(c1cnccc1Oc1cc(Cl)ccc1Cl)N1CCN(C2CC2)c2ccccc21` [Compound 2, reference compound], the “Papp A to B” value with Caco-2 cells (setting [9]) is recorded as 6.75 10^−6 cm/s. The “Papp B to A” value with Caco-2 cells (setting [10]) is 5.58 10^−6 cm/s. In the data set on ICR mice [1] (50 mg/kg p.o.), the “AUC0–120 min of blood glucose, signed change vs control (OGTT, Fig. 3B)” value is on record as -16%. Further, the “decrease of blood glucose AUC vs control (OGTT)” value in the data set on ICR mice [1] (50 mg/kg p.o. 1.5 h before glucose 4 g/kg) is recorded as 16%. Moreover, the solubility in data set [2] is 0.441 µg/mL (≈ 1 µM).

`O=C(CCc1cc(Cl)c(Oc2ccncc2C(=O)N2CCN(C3CC3)c3ccccc32)cc1Cl)NCCOCCOCCOCCOCCOCCOCCOCCOCCNC(=O)CCc1cc(Cl)c(Oc2ccncc2C(=O)N2CCN(C3CC3)c3ccccc32)cc1Cl` [Compound 3]: the hypoglycemic effect entry in the data set on ob/ob mice is “no significant effect”. Also, the hypoglycemic efficacy result in the data set on ICR mice [3] was “moderate”.

Take `O=C(c1sccc1Oc1cc(Cl)ccc1Cl)N1CCN(C2CC2)c2ccccc21` [Compound 9a]: the melting point is 120 °C. Also, the response on human TGR5 was half-maximal at 0.55 nM (EC50). Further, in data set [4] (Caco-2), the efflux ratio at 95 min stood at 0.8. Further, the Papp A→B at 95 min in data set [4] (setting [9]) came to 0.55 ×10⁻⁶ cm/s. For the same compound, the Papp B→A at 95 min in [4] (setting [10]) was 0.43 ×10⁻⁶ cm/s. Besides, the “liver microsomal clearance (CLint)” value in data set [5] is reported as 1390 mL/min/g. This compound showed a half-maximal effective concentration (EC50) on mouse TGR5 of 2.8 nM. For the same compound, the “increase of gallbladder area vs control” value in the data set on ICR mice [6] turned out to be 210%. Further, in data set [7], the “liver microsomal clearance (CLint)” value is 1631 mL/min/g.

Take `O=C(c1sccc1Oc1cc(Cl)ccc1Br)N1CCN(C2CC2)c2ccccc21` [Compound 9c]: the melting point is 107 °C. On human TGR5, a half-maximal effect (EC50) was put at 0.58 ± 0.11 nM. Also, the “solubility (in words)” value in data set [8] was “poor solubility”. In addition, at mouse TGR5, the EC50 amounted to 3 ± 0.69 nM.

In the case of `CN1CCN(C(=O)c2sccc2Oc2ccc(C(F)(F)F)cc2)c2ccccc21` [Compound 9h], the melting point was found to be 88 °C. On human TGR5, this compound returned an EC50 of 76 ± 9.8 nM.

The values are drawn from article PMC4919643, “Intestinally-targeted TGR5 agonists equipped with quaternary ammonium have an improved hypoglycemic effect and reduced gallbladder filling effect” (Scientific Reports, 2016).
